Results reported in US10172355B2, “Safened herbicidal compositions including 4-amino-3-chloro-5-fluoro-6-(4-chloro-2-fluoro-3-methoxyphenyl)pyridine-2-carboxylic acid or a derivative thereof for use in rice” (Dow AgroSciences LLC, priority 2012, dated 2019).
Where two headings read alike, the source gives them in different places.

Test system: ORYSA=Orysa sativa, Rice
Experiment: Postemergence foliar-applied herbicides and safeners in direct-seeded rice, visual injury
Format: in vivo
Settings: for Visual crop injury (%) at 140 g/ha: Oryza sativa, 480 h, read-out: Visual Injury (%) - 20 DAA ORYSA-‘Clearfield 171’ Obs, foliar, Compound A form 140 g ae/ha alone; for Visual crop injury (%) at 140 g/ha / Visual Injury (%) - 21 DAA ORYSA-‘Clearfield 171’ Obs / Visual Injury (%) - 21 DAA ORYSA-‘Neptune’ Obs / Visual Injury (%) - 21 DAA ORYSA-‘Wells’ Obs: foliar; for Visual Injury (%) - 21 DAA ORYSA-‘Clearfield 171’ Obs / Visual Injury (%) - 21 DAA ORYSA-‘Neptune’ Obs / Visual Injury (%) - 21 DAA ORYSA-‘Wells’ Obs: Compound A form 70 g ae/ha alone, Tables 1,2,7,8; for Mean Visual Injury (%) - 20-22 DAA ORYSA ‘Clearfield 171’ / Mean Visual Injury (%) - 20-22 DAA ORYSA ‘Wells’: post-emergence foliar
Description: Seeds or nutlets of the desired test plant species were planted in a soil matrix prepared by mixing a loam or sandy loam soil (e.g., 28.6 percent silt, 18.8 percent clay, and 52.6 percent sand, with a pH of about 5.8 and an organic matter content of about 1.8 percent) and calcareous grit in an 80 to 20 ratio. The soil matrix was contained in plastic pots with a surface area of 84.6 square centimeters (cm^2). When required to ensure good germination and healthy plants, a fungicide treatment and/or other chemical or physical treatment was applied. The plants were grown for 8-22 days in a greenhouse with an approximate 14 hr photoperiod which was maintained at about 29° C. during the day and 26° C. during the night. Nutrients (Peters Excel 15-5-15 5-Ca 2-Mg and iron chelate) were applied in the irrigation solution as needed and water was added on a regular basis. Supplemental lighting was provided with overhead metal halide 1000-Watt lamps as necessary. The plants were employed for testing when they reached the second or third true leaf stage.
Treatments consisted of the acid or esters of 4-amino-3-chloro-5-fluoro-6-(4-chloro-2-fluoro-3-methoxy-phenyl)pyridine-2-carboxylic acid (compound A) and various safener components alone and in combination. Forms of compound A were applied on an acid equivalent basis. Safener components were applied on an active ingredient or acid equivalent basis depending on the compound.
Treatment requirements were calculated based upon the rates being tested, the concentration of active ingredient or acid equivalent in the formulation, and a 12 mL application volume at a rate of 187 L/ha.
For treatments comprised of formulated compounds, measured amounts of compounds were placed individually in 25 mL glass vials and diluted in a volume of 1.25% (v/v) Agri-dex crop oil concentrated to obtain 12× stock solutions. […] Application solutions were prepared by adding an appropriate amount of each stock solution (e.g., 1 mL) and diluted to the appropriate final concentrations with the addition of 10 mL of an aqueous mixture of 1.25% (v/v) Agri-dex crop oil concentrate so that the final spray solutions contained 1.25% (v/v) Agri-dex crop oil concentrate.
For treatments comprised of technical compounds, weighed amounts were placed individually in 25 mL glass vials and dissolved in a volume of 97:3 v/v acetone/DMSO to obtain 12× stock solutions. […] Application solutions were prepared by adding an appropriate amount of each stock solution (e.g., 1 mL) and diluted to the appropriate final concentrations with the addition of 10 mL of an aqueous mixture of 1.5% (v/v) Agri-dex crop oil concentrate so that the final spray solutions contained 1.25% (v/v) Agri-dex crop oil concentrate. When technical materials were used, the concentrated stock solutions were added to the spray solutions so that the final acetone and DMSO concentrations of the application solutions were […], respectively.
For treatments comprised of formulated and technical compounds, weighed amounts of the technical materials were placed individually in 25 mL glass vials and dissolved in a volume of 97:3 v/v acetone/DMSO to obtain 12× stock solutions, and measured amounts of the formulated compounds were placed individually in 25 mL glass vials and diluted in a volume of 1.5% (v/v) Agri-dex crop oil concentrate or water to obtain 12× stock solutions. […] Application solutions were prepared by adding an appropriate amount of each stock solution (e.g., 1 mL) and diluted to the appropriate final concentrations with the addition of an appropriate amount of an aqueous mixture of 1.5% (v/v) Agri-dex crop oil concentrate so that the final spray solutions contained 1.25% (v/v) Agri-dex crop oil concentrate. When required, additional water and/or 97:3 v/v acetone/DMSO was added to individual application solutions so that the final acetone and DMSO concentrations of the application solutions being compared were 8.1% and 0.25%, respectively. […]

Compound: COc1c(Cl)ccc(-c2nc(C(=O)O)c(Cl)c(N)c2F)c1F [Acid, 4-amino-3-chloro-6-(4-chloro-2-fluoro-3-methoxyphenyl)-5-fluoropyridine-2-carboxylic acid]
- Visual crop injury (%) at 140 g/ha (trial of Tables 3,4,6,10,12,14): 43%
- Visual crop injury (%) at 140 g/ha (trial of Tables 5,9,11,13): 38%
- Visual Injury (%) - 21 DAA ORYSA-‘Clearfield 171’ Obs: 22%
- Visual Injury (%) - 21 DAA ORYSA-‘Neptune’ Obs: 40%
- Visual Injury (%) - 21 DAA ORYSA-‘Wells’ Obs: 12%
- Mean Visual Injury (%) - 20-22 DAA ORYSA ‘Clearfield 171’ (2 g ae/ha): 0%
- Mean Visual Injury (%) - 20-22 DAA ORYSA ‘Wells’ (2 g ae/ha): 0%
- Mean Visual Injury (%) - 20-22 DAA ORYSA ‘Clearfield 171’ (4 g ae/ha): 0%
- Mean Visual Injury (%) - 20-22 DAA ORYSA ‘Wells’ (4 g ae/ha): 0%
- Mean Visual Injury (%) - 20-22 DAA ORYSA ‘Clearfield 171’ (8 g ae/ha): 2%
- Mean Visual Injury (%) - 20-22 DAA ORYSA ‘Wells’ (8 g ae/ha): 0%
- Mean Visual Injury (%) - 20-22 DAA ORYSA ‘Clearfield 171’ (16 g ae/ha): 11%
- Mean Visual Injury (%) - 20-22 DAA ORYSA ‘Wells’ (16 g ae/ha): 7%
- Mean Visual Injury (%) - 20-22 DAA ORYSA ‘Clearfield 171’ (32 g ae/ha): 24%
- Mean Visual Injury (%) - 20-22 DAA ORYSA ‘Wells’ (32 g ae/ha): 12%

Compound: COc1c(Cl)ccc(-c2nc(C(=O)OCc3ccccc3)c(Cl)c(N)c2F)c1F [Benzyl]
- Visual crop injury (%) at 140 g/ha (trial of Tables 3,4,6,10,12,14): 13%
- Visual crop injury (%) at 140 g/ha (trial of Tables 5,9,11,13): 15%
- Visual Injury (%) - 21 DAA ORYSA-‘Clearfield 171’ Obs: 0%
- Visual Injury (%) - 21 DAA ORYSA-‘Neptune’ Obs: 5%
- Visual Injury (%) - 21 DAA ORYSA-‘Wells’ Obs: 0%
- Mean Visual Injury (%) - 20-22 DAA ORYSA ‘Clearfield 171’ (2 g ae/ha): 0%
- Mean Visual Injury (%) - 20-22 DAA ORYSA ‘Wells’ (2 g ae/ha): 0%
- Mean Visual Injury (%) - 20-22 DAA ORYSA ‘Clearfield 171’ (4 g ae/ha): 0%
- Mean Visual Injury (%) - 20-22 DAA ORYSA ‘Wells’ (4 g ae/ha): 0%
- Mean Visual Injury (%) - 20-22 DAA ORYSA ‘Clearfield 171’ (8 g ae/ha): 0%
- Mean Visual Injury (%) - 20-22 DAA ORYSA ‘Wells’ (8 g ae/ha): 0%
- Mean Visual Injury (%) - 20-22 DAA ORYSA ‘Clearfield 171’ (16 g ae/ha): 8%
- Mean Visual Injury (%) - 20-22 DAA ORYSA ‘Wells’ (16 g ae/ha): 3%
- Mean Visual Injury (%) - 20-22 DAA ORYSA ‘Clearfield 171’ (32 g ae/ha): 3%
- Mean Visual Injury (%) - 20-22 DAA ORYSA ‘Wells’ (32 g ae/ha): 3%
